According to US4684647A, “Anti-bacterial pyrido-benzothiazine derivative and pharmaceutical composition therefor” (priority 1984, dated 1987):
Converted amounts (≈) assume the structure as drawn.

What was measured:
[1] = pharmacokinetic test, absorption; assay type: in vivo
Escherichia coli (981) = experiment: MIC in agar, Escherichia coli (981); assay type: cell-based; settings: Isosensitest agar, 10^4 CFU, 24 h, 37° C.
Method: (§1) The antibacterial activity (minimum inhibiting concentration, MIC) of the compounds according to the invention has been determined in agar, by adding the compound under evaluation at concentrations of from 0.1 to 100 meg/ml by means of a "multipoint inoculator" (Denley Techn. Ltd., England); the medium used was Isosensitest agar (Oxoid); the bacterial inoculate was 10^4 colony forming unity (CFU) per inoculation point. The reading of the results was done after 24 hour-incubation in thermostat at 37° C.
(§2) The MIC was defined as the lowest concentration of chemotherapeutic agent still capable of totally inhibiting the growth of bacteria, as detected from a lack of colony development in the inoculation point.
(§3) The microorganisms used for evaluating the activity of the specific compounds have been: Escherichia coli, Klebsiella P., Enterobacter, Serratia, Citrobacter, Proteus (+), Salmonella, Pseudomonas, Staphylococcus. All the compounds according to the present invention are provided with antibacterial activity against one or more microorganism(s) among those above mentioned. Some of such compounds are absorbed after having been administered orally to the animals, and are particularly useful as disinfectants of the urinary tract in that they are excreted in a high percentage (50-70% over 24 hours after the administration of 50 mg/kg per os) as such, and in metabolic active form, through the urine.
A = Escherichia coli (981)

Klebsiella pneumoniae = experiment: MIC in agar, Klebsiella pneumoniae; assay type: cell-based; settings: Isosensitest agar, 10^4 CFU, 24 h, 37° C., read-out: MIC, E = Klebsiella pneumoniae
Method: as §1, §2, §3
E = Klebsiella pneumoniae

Pseudomonas aeruginosa = experiment: MIC in agar, Pseudomonas aeruginosa; assay type: cell-based; settings: Isosensitest agar, 10^4 CFU, 24 h, 37° C., read-out: MIC, B = Pseudomonas aeruginosa
Method: as §1, §2, §3
B = P udomonas aeruginosa

Citrobacter = experiment: MIC in agar, Citrobacter; assay type: cell-based; settings: Isosensitest agar, 10^4 CFU, 24 h, 37° C., read-out: MIC, G = Citrobacter
Method: as §1, §2, §3

Enterobacter = experiment: MIC in agar, Enterobacter; assay type: cell-based; settings: Isosensitest agar, 10^4 CFU, 24 h, 37° C., read-out: MIC, F = Enterobacter
Method: as §1, §2, §3

Staphylococcus aureus = experiment: MIC in agar, Staphylococcus aureus; assay type: cell-based; settings: Isosensitest agar, 10^4 CFU, 24 h, 37° C.
Method: as §1, §2, §3

bacteria = experiment: antibacterial activity in vitro, overall; assay type: cell-based; settings: for anti-bacterial activity in vitro: Table 1; for activity with chlorine instead of fluorine in the X-position: comparison with (a), (c), (p)
Method: as §1, §2, §3

[2] = tested on: Proteus Morgani (indole +); experiment: MIC in agar, Proteus Morgani (indole +); assay type: cell-based; settings: Isosensitest agar, 10^4 CFU, 24 h, 37° C.; read-out: MIC, D = Proteus Morgani (indole +)
Method: as §1, §2, §3
D = Proteus Morgani (indole +)

in vivo = settings: rat, po
Method: In Table 4 the percentage of urinary excretion of compound (h) is reported, as measured in the 24 hours successive to oral administration of the same to rats.
Each value is the average of three tested rats.
The tests have been performed in comparison with Ofloxacin, a well known antibacterial compound. The amount of excreted product has been determined with microbiological analysis, by using Klebsiella Pneumoniae as the testing microorganism.

| SMILES | absorption [1] | MIC (Escherichia coli (981)) | MIC (Klebsiella pneumoniae) | MIC (Pseudomonas aeruginosa) | MIC (Citrobacter) | MIC (Enterobacter) | MIC (Staphylococcus aureus) | anti-bacterial activity in vitro (bacteria) | MIC [2] | activity with chlorine instead of fluorine in the X-position (bacteria) | dose excreted at 24 h (in vivo; 20 mg/kg) | dose excreted at 24 h (in vivo; 50 mg/kg) |
| --- | --- | --- | --- | --- | --- | --- | --- | --- | --- | --- | --- | --- |
| O=C(O)c1cn2c3c(c(Cl)c(F)cc3c1=O)SCC2 [(a), 9-fluoro-10-chloro-7-oxo-2,3-dihydro-7H-pyrido[1,2,3de][1,4]benzothiazine-6-carboxylic acid] | not at all absorbed | 0.39 mg/L (≈ 1.3 µM) | 0.78 mg/L (≈ 2.6 µM) | > 25 mg/L | 0.78 mg/L (≈ 2.6 µM) | 0.39 mg/L (≈ 1.3 µM) | 0.39 mg/L (≈ 1.3 µM) | very good and comparable anti-bacterial activity | 1.56 mg/L (≈ 5.21 µM) | – | – | – |
| O=C(O)c1cn2c3c(c(N4CCCC4)c(F)cc3c1=O)SCC2 [(c)] | – | 1.56 mg/L (≈ 4.67 µM) | 1.56 mg/L (≈ 4.67 µM) | 3.12 mg/L (≈ 9.33 µM) | 25 mg/L (≈ 74.8 µM) | 1.56 mg/L (≈ 4.67 µM) | < 0.39 mg/L | very good and comparable anti-bacterial activity | 3.12 mg/L (≈ 9.33 µM) | – | – | – |
| O=C(O)c1cn2c3c(c(N4CCCC4)c(F)cc3c1=O)[S+]([O-])CC2 (centres unmarked) [(e)] | – | 12.5 mg/L (≈ 35.7 µM) | 25 mg/L (≈ 71.4 µM) | > 50 mg/L | 50 mg/L (≈ 143 µM) | 50 mg/L (≈ 143 µM) | 12.5 mg/L (≈ 35.7 µM) | – | > 50 mg/L | – | – | – |
| O=C(O)c1cn2c3c(c(N4CCCC4)c(F)cc3c1=O)S(=O)(=O)CC2 [(f), 9-fluoro-10-(1-pyrrolidinyl)-7-oxo-2,3-dihydro-7H-pyrido[1,2,3 de][1,4]benzothiazine-1,1-dioxido-6-carboxylic acid] | – | 3.12 mg/L (≈ 8.52 µM) | 25 mg/L (≈ 68.2 µM) | > 50 mg/L | 25 mg/L (≈ 68.2 µM) | 25 mg/L (≈ 68.2 µM) | 3.12 mg/L (≈ 8.52 µM) | – | > 50 mg/L | – | – | – |
| O=C(O)c1cn2c3c(c(N4CCNCC4)c(F)cc3c1=O)SCC2 [(g)] | – | 0.39 mg/L (≈ 1.12 µM) | < 0.39 mg/L | 12.5 mg/L (≈ 35.8 µM) | 0.78 mg/L (≈ 2.23 µM) | < 0.39 mg/L | 0.78 mg/L (≈ 2.23 µM) | very good and comparable anti-bacterial activity | 1.56 mg/L (≈ 4.46 µM) | – | – | – |
| O=C(O)c1cn2c3c(c(N4CCN(CC(F)(F)F)CC4)c(F)cc3c1=O)SCC2 [(i)] | – | > 50 mg/L | > 50 mg/L | > 50 mg/L | 12.5 mg/L (≈ 29 µM) | > 50 mg/L | 0.39 mg/L (≈ 0.904 µM) | – | > 50 mg/L | – | – | – |
| O=C(O)c1cn2c3c(c(N4CCN(C(=O)C(F)(F)F)CC4)c(F)cc3c1=O)SCC2 [(l)] | – | < 0.39 mg/L | < 0.39 mg/L | 12.5 mg/L (≈ 28.1 µM) | 0.39 mg/L (≈ 0.876 µM) | < 0.39 mg/L | 1.56 mg/L (≈ 3.5 µM) | very good and comparable anti-bacterial activity | 1.56 mg/L (≈ 3.5 µM) | – | – | – |
| CC1CN(c2c(F)cc3c(=O)c(C(=O)O)cn4c3c2SCC4)CC(C)N1 (centres unmarked) [(m)] | – | 6.25 mg/L (≈ 16.6 µM) | 6.25 mg/L (≈ 16.6 µM) | 100 mg/L (≈ 265 µM) | 12.5 mg/L (≈ 33.1 µM) | 3.12 mg/L (≈ 8.27 µM) | 3.12 mg/L (≈ 8.27 µM) | – | 25 mg/L (≈ 66.2 µM) | – | – | – |
| CC1CSc2c(Cl)c(F)cc3c(=O)c(C(=O)O)cn1c23 (centres unmarked) [(n), 9-fluoro-10-chloro-3-methyl-7-oxo-2,3-dihydro-7H-pyrido[1,2,3 de][1,4]benzothiazine-6-carboxylic acid] | – | 0.39 mg/L (≈ 1.24 µM) | 0.78 mg/L (≈ 2.49 µM) | 25 mg/L (≈ 79.7 µM) | – | 0.39 mg/L (≈ 1.24 µM) | 0.39 mg/L (≈ 1.24 µM) | very good and comparable anti-bacterial activity | – | – | – | – |
| CC1CSc2c(F)c(F)cc3c(=O)c(C(=O)O)cn1c23 (centres unmarked) [(o), 9,10-difluoro-3-methyl-7-oxo-2,3-dihydro-7H-pyrido[1,2,3 de][1,4]benzothiazine-6-carboxylic acid] | – | – | – | – | – | – | – | very good and comparable anti-bacterial activity | – | – | – | – |
| CC1CSc2c(N3CCN(C)CC3)c(F)cc3c(=O)c(C(=O)O)cn1c23 (centres unmarked) [(p)] | – | 0.78 mg/L (≈ 2.07 µM) | < 0.39 mg/L | 50 mg/L (≈ 132 µM) | – | < 0.39 mg/L | 0.78 mg/L (≈ 2.07 µM) | very good and comparable anti-bacterial activity | – | – | – | – |
| CC1CSc2c(N3CCNCC3)c(F)cc3c(=O)c(C(=O)O)cn1c23 (centres unmarked) [(r)] | – | 0.78 mg/L (≈ 2.15 µM) | < 0.39 mg/L | 12.5 mg/L (≈ 34.4 µM) | – | < 0.39 mg/L | 0.78 mg/L (≈ 2.15 µM) | very good and comparable anti-bacterial activity | – | – | – | – |
| O=C(O)c1cn2c3c(c(Cl)c(Cl)cc3c1=O)SCC2 [Comparison (b), reference compound] | – | > 50 mg/L | 12.5 mg/L (≈ 39.5 µM) | > 50 mg/L | > 50 mg/L | > 50 mg/L | 0.78 mg/L (≈ 2.47 µM) | – | 6.25 mg/L (≈ 19.8 µM) | strongly reduced | – | – |
| O=C(O)c1cn2c3c(c(N4CCCC4)c(Cl)cc3c1=O)SCC2 [Comparison (d), reference compound] | – | > 50 mg/L | 12.5 mg/L (≈ 35.6 µM) | > 50 mg/L | > 50 mg/L | > 50 mg/L | 0.78 mg/L (≈ 2.22 µM) | – | 3.12 mg/L (≈ 8.89 µM) | strongly reduced | – | – |
| CC1CSc2c(N3CCN(C)CC3)c(Cl)cc3c(=O)c(C(=O)O)cn1c23 (centres unmarked) [Comparison (q), reference compound] | – | > 50 mg/L | 12.5 mg/L (≈ 31.7 µM) | > 12.5 mg/L | – | > 50 mg/L | 3.12 mg/L (≈ 7.92 µM) | – | – | strongly reduced | – | – |
| CC1COc2c(N3CCN(C)CC3)c(F)cc3c(=O)c(C(=O)O)cn1c23 (centres unmarked) [Ofloxacin, reference compound] | – | – | – | – | – | – | – | – | – | – | 61 ± 4.58% | 54.5 ± 5.29% |
